From ChEMBL document CHEMBL1201862, “PubChem BioAssay data set” (2004) come the findings set out here.

What all share (assay): NCI-60 cell line screen, 48 h
The subject of experiment [1] is TK-10.
Experiment [2] concerns 786-0.
For experiment [3], the system named is UACC-62.
In experiment [4] the test system is OVCAR-5.
Experiment [5] has as its system EKVX.
The subject of experiment [6] is MOLT-4.
The subject of experiment [7] is NCI-H522.
Experiment [8] relates to RXF 393.
In experiment [9] the test system is NCI/ADR-RES.
Experiment [10] has as its system HCT-15.
Experiment [11] has as its system CCRF-CEM.
For experiment [12], the system named is HL-60.
For experiment [13], the system named is OVCAR-4.
Experiment [14] has as its system COLO 205.
For experiment [15], the system named is SK-MEL-5.
Experiment [16] has as its system A498.
Experiment [17] deals with HCT-116.
For experiment [18], the system named is Hs-578T.
Experiment [19] deals with CAKI-1.
The subject of experiment [20] is MDA-MB-231.

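In this assay, cells in 96-well plates receive the compound at five concentrations for 48 hours. Endpoints are linearly interpolated between the surrounding concentrations. GI50 marks 50% less growth.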 The source made the active and inactive calls. Rule as the data show it: active = GI50 up to about 1.1 µM and inactive = higher. Where a SMILES comes first, the peptide text is derived from it. [ ]: non-standard residue; d: D form. Phe(4-NO2) = N[CH](Cc1ccc([N+](=O)[O-])cc1)C(=O)O

On to `CC(NC(=O)C(Cc1ccc([N+](=O)[O-])cc1)NC(=O)C(N)CCCCN)C(=O)NC(Cc1ccc([N+](=O)[O-])cc1)C(N)=O` (stereo not given) (H-K[Phe(4-NO2)]A[Phe(4-NO2)]-NH2; configuration not given here), for which the GI50 was > 59.4 µM (inactive) in [1]; 21.9 µM (inactive) in experiment [2]; > 100 µM (inactive) in experiment [3]; > 100 µM (inactive) in [4]; > 71.4 µM (inactive) in experiment [5]; > 31.6 µM (inactive) in experiment [6]. Moreover, the GI50 in experiment [7] is > 30.5 µM (inactive); in experiment [8], 39.2 µM (inactive); in [9], 69 µM (inactive); in experiment [10], 56.6 µM; in [11], > 100 µM (inactive); in [12], 18.7 µM (inactive). In addition, the GI50 in experiment [13] is > 38.6 µM (inactive); in [14] it was > 52.7 µM (inactive); in [15], 35.8 µM (inactive); in [16] it was 85.5 µM (inactive); in [17], > 45.2 µM (inactive); in experiment [18] it was > 68.7 µM (inactive). In addition, the GI50 in experiment [19] was 47 µM (inactive); in experiment [20], 39.6 µM (inactive).
For the compound `COc1c2c3c4c(c(OC)c(=O)c5c(O)cc(OC)c(c6c(OC)cc(O)c(c1=O)c63)c54)C(C(C)O)C2C(C)=O` (stereo not given), the GI50 in experiment [1] is 0.581 µM (active); in [2] it was 0.61 µM (active); in experiment [3] it was 0.483 µM (active); in [4], 0.603 µM (active); in experiment [5] it was 0.482 µM (active); in experiment [6] it was 0.279 µM (active). Further, the GI50 in experiment [7] was 0.171 µM (active); in experiment [8] it was 0.06 µM (active); in [9], 0.296 µM (active); in experiment [10], 0.652 µM; in [11], 0.269 µM (active); in experiment [12] it was 0.334 µM (active). Further, the GI50 in [13] was 0.46 µM (active); in experiment [14], 0.571 µM (active); in [15], 0.138 µM (active); in experiment [16], 0.628 µM (active); in [17], 0.385 µM (active); in experiment [18], 0.593 µM (active). The GI50 in experiment [19] is 0.279 µM (active); in [20], 0.741 µM (active).
`CSc1ncc2c(C#N)c3[nH]c4ccccc4n3c(=O)c2n1`: the GI50 in experiment [1] was 31.5 µM (inactive); in [2], 31.7 µM (inactive); in experiment [3], 4.61 µM (inactive); in experiment [4] it was 55.1 µM (inactive); in experiment [5], 33.9 µM (inactive); in [6] it was 4.28 µM (inactive). Also, the GI50 was 7.52 µM (inactive) in experiment [7]; 7.53 µM (inactive) in [8]; 4.89 µM (inactive) in experiment [9]; 9.71 µM in experiment [10]; 4.92 µM (inactive) in [11]; 7.29 µM (inactive) in experiment [12]. For the same compound, the GI50 in experiment [13] is 6.84 µM (inactive); in experiment [14], 17 µM (inactive); in experiment [15], 10.6 µM (inactive); in [16] it was 9.84 µM (inactive); in experiment [17], 13.1 µM (inactive); in experiment [18], 30.6 µM (inactive). The GI50 in experiment [19] was 22.8 µM (inactive); in [20], 26.6 µM (inactive).
On to `C1=C(c2ccccc2)C(N2CCOCC2)Oc2ccccc21` (stereo not given), for which the GI50 is > 100 µM (inactive) in [1]; > 100 µM (inactive) in experiment [2]; 95.3 µM (inactive) in experiment [3]; > 100 µM (inactive) in experiment [4]; > 100 µM (inactive) in experiment [5]; 81.7 µM (inactive) in experiment [6]. The GI50 in experiment [7] is > 100 µM (inactive); in experiment [8] it was > 100 µM (inactive); in [9] it was 79.8 µM (inactive); in experiment [10], over 100 µM; in experiment [11] it was > 100 µM (inactive); in [12] it was 42.7 µM (inactive). For the same compound, the GI50 is > 100 µM (inactive) in experiment [13]; > 100 µM (inactive) in experiment [14]; > 100 µM (inactive) in experiment [15]; 25.5 µM (inactive) in experiment [16]; > 100 µM (inactive) in experiment [17]; > 100 µM (inactive) in [18]. Besides, the GI50 in [19] and in experiment [20] was > 100 µM (inactive) throughout.
For the compound `COc1cccc2c(=O)c3c(n(C)c12)OC(C(C)C)C3` (stereo not given), the GI50 is > 100 µM (inactive) in experiment [1]; > 100 µM (inactive) in experiment [2]; > 100 µM (inactive) in [3]; > 100 µM (inactive) in [4]; 89.5 µM (inactive) in experiment [5]; 16.9 µM (inactive) in [6]. Further, the GI50 in experiment [7] was > 100 µM (inactive); in experiment [8] it was > 100 µM (inactive); in experiment [9], 55.7 µM (inactive); in [10], 46.9 µM; in experiment [11], > 100 µM (inactive); in [12] it was 69.7 µM (inactive). In addition, the GI50 in experiment [13] was 22.5 µM (inactive); in experiment [14], 74 µM (inactive); in experiment [15], 56.1 µM (inactive); in experiment [16] it was > 100 µM (inactive); in [17], > 100 µM (inactive); in experiment [18], > 100 µM (inactive). Moreover, the GI50 in experiment [19] was 42.8 µM (inactive); in experiment [20] it was > 100 µM (inactive).
